Patent US20230303506A1, “COMPOSITIONS AND METHODS FOR THE PREVENTION AND/OR TREATMENT OF MITOCHONDRIAL DISEASE, INCLUDING FRIEDREICH'S ATAXIA” (Stealth BioTherapeutics Inc., priority 2019, published 2023)
“Also recorded” adds a separate entry of the source. Read-outs that look alike come from different tables or passages of the source.

Tests used:
[1] = system: HepG2 human hepatocarcinoma cells; test: Rotenone ATP Assay (Complex I Assay); type: cell-based; conditions: for activity in both the BSO Assay and the Rotenone ATP Assay, in words: BSO Assay and Rotenone ATP Assay taken together; for Complex I by-pass activity / restoring ATP production, in words: summary of rotenone assays; for EC50 / Rotenone ATP Assay EC50, nM: HepG2, 50 micromolar rotenone, 60 minutes
Protocol: This assay has been adapted from Haefeli R H, Erb M, Gemperli A C, Robay D, Courdier Fruh I, et al. (2011) NQO1-Dependent Redox Cycling of Idebenone: Effects on Cellular Redox Potential and Energy Levels. PLoS ONE 6(3): e17963. HepG2 human hepatocarcinoma cells were co-incubated with the electron transport chain Complex I toxin rotenone +/− compounds of interest and the corresponding effect on ATP synthesis was measured with a bioluminescent substrate.
In brief, HepG2 cells were plated at 25,000 cells per well in low glucose (1 gram/Liter) DMEM medium+10% fetal calf serum and incubated for 24 hours. The following day, the media was decanted and subsequently replaced with glucose free/serum free DMEM which has been supplemented with 50 micromolar rotenone and compound of interest. Serial dilutions of compound were prepared in 3× dilutions beginning at 25 micromolar. The cells were incubated for 60 minutes in a humidified tissue culture incubator. Following incubation, ATP levels were quantified via bioluminescent assay (Promega […] Glo Assay kit) and readings were captured on a standard microplate reader.
ATP bioluminescence is plotted versus the log of compound of interest and data were used to generate EC50 values. Curve fitting was performed using a sigmoidal dose response curve fit function (GraphPad Prism software).
Robustness of curve fit was assessed as a quality control measure, with an R squared value of at least 0.80 being required for a successful curve fit. Compounds of interest showing an increase in ATP bioluminescence relative to vehicle control were verified in an independent biological replicate of n=3 technical replicates per dose.
This assay is a direct measure of the ability of compounds of interest to restore ATP production under conditions of inhibition of Complex I of the mitochondrial electron transport chain. As the majority of ATP produced via the electron transport chain is thought to derive from Complex I activity, significant impairment in Complex I function has dire biological consequences. Of note, Complex I mutations are thought to drive pathophysiology in multiple mitochondrial diseases, including Leigh syndrome and Leber's Hereditary Optic Neuropathy (LHON), while diminished Complex I activity and the resultant attenuation of ATP production has been shown in neurodegenerative diseases, including Friedreich's Ataxia, Parkinson's Disease and Huntington's Disease.

[2] = system: HepG2 cells; test: Rotenone Oxygraph Assay (high-resolution respirometry of intact HepG2 cells); type: cell-based, human; conditions: for Rotenone Oxygraph Assay % Increase: Table 7; for Rotenone Oxygraph Assay % Increase / Percent increase in ATP (Rotenone Oxygraph Assay), Mean: 1 μM rotenone, compound 10 μM; for Percent increase in ATP (Rotenone Oxygraph Assay), Mean: Table 4, intact HepG2 cells, change in respiration rate
Protocol: The Oxygraph-2 k (O2k, OROBOROS INSTRUMENTS, Austria) was used for measurements of respiration of intact cells. The respirometry was performed in Dulbecco's Modified Eagle Medium (DMEM) high glucose without supplements. All experiments were performed at 37° C.
HepG2 cells (ATCC collection code HB-8065™) were cultured in 10 cm^2 culture dishes in DMEM high glucose medium supplemented with 10% fetal bovine serum (FBS) and 100 units/mL penicillin and 100 μg/mL streptomycin until approximately 90% confluence was reached. Immediately prior to performing the respirometric assay, the cells were washed with media without FBS, trypsinized and resuspended in DMEM high glucose without FBS.
The final concentration of intact cells in the O2k-chamber was 0.5·10^6/mL. After stabilization of respiration, the Complex I inhibitor, rotenone, at 1 μM final concentration was added to inhibit electron flux via Complex I. Then, compound to be tested was added at 10 μM final concentration, and the change in respiration rate of intact cells was monitored.

[3] = system: frataxin deficient fibroblasts (GM03665); test: cells; type: cell-based; conditions: for EC50: 10 mM BSO, 48 hrs, MTT
[4] = target: lipoxygenase-15 enzyme (Glycine max (Soybean) (Glycine hispida), UniProt P08170); test: Lipoxygenase-15 Assay (LO-15 Assay); conditions: reduced form of compounds
[5] = system: Nrf-2; test: Nrf-2 Activation Assay (Nrf-2 Assay); type: cell-based, human; conditions: for activation of Nrf-2 pathway, in words: FIG. 7; for Nrf-2 Assay: Table 7, 1 μM compound, 24 hours, qPCR of Nrf-2 responsive genes
Protocol: This assay was developed internally and was designed to determine if the novel test compounds disclosed herein active Nrf-2 and thereby promote resolution of inflammation by the mechanism believed to be responsible for the activity of omaveloxolone.
Briefly, GM03665 Friedreich Ataxia patient fibroblasts were grown in 12 Well Plates (TC Cell+F) (Sarstedt, Numbrecht Germany), at a density of […] in DMEM/F12 (Gibco, ThermoFisher Scientific, Waltham, MA, USA) cell media supplemented with 10% FBS and 1% Pen/Strep. Cells were left to rest overnight at 37° C. in a humidified atmosphere with 5% CO2 to allow attachment of the cells to the culture plate. Before continuing assay visual inspection of each well was done by light microscopy to detect any possible bacterial and fungal contamination. […] After incubation, cell media was removed and total RNA from the cells was isolated using E.Z.N.A.® Total RNA Kit I (Omega Bio-tek, Norcross, Georgia, USA) spin columns, and first-strand cDNA synthesis was carried out using a High Capacity cDNA Reverse Transcription Kit (Applied Biosystems™, Foster City, CA) following the manufacturer's instructions. qPCR analysis of gene expression was performed by mixing SYBR® Green Master Mix (Applied Biosystems™) with synthesized cDNA and forward and reverse primers. […] (60 cycles), and 95° C. for 60 seconds, followed by melt curve analysis at 72-95° C., 0.3° C./sec. The relative expression levels for each gene were calculated with the ΔΔCt method and normalized to the expression of REEP5 and SNRPD3 genes.

[6] = system: GM03665 cells; test: RSL3 Toxicity Assay (RSL3 Assay); type: cell-based, human
Protocol: In brief, GM03665 cells (Coriell Institute) were seeded in 96-well plates (Sarstedt) in DMEM cell culture media containing 10% Fetal Bovine serum and 1% Penicillin-Streptomycin (Pen-Strep) antibiotic mix at the amount of 2×10^4/mL (100 μL or 2×10^3 cells per well). Cells were left to rest overnight at 37° C. in a humidified atmosphere with 5% CO2 to allow attachment of the cells to the culture plate. Test compounds were prepared as DMSO stocks (10 mM) and were serially diluted in cell culture media to obtain 2× working solutions. Cell media was discarded and replaced by 50 μL of test compound solutions or cell media with vehicle for control wells. Within 15 minutes, 2× working solution (4 μM) of 1S,3R-RSL3 (CAS #1219810-16-8, Sigma-Aldrich) (diluted from 5 mM DMSO stock in cell culture media) was added. Final reaction volume was 100 μL and final DMSO concentration in reaction was kept below 0.2% (v/v) and equal in all wells. Final RSL3 concentration was 2 μM and test compound final concentrations in reaction were up to 1000 nM. After 24 hours of incubation cell viability was assessed by MTT test. MTT (Sigma-Aldrich) solution 1 mg/mL in 1×PBS (pH=7,4) was prepared 1 hour before the assay and filtered through Filtropur S 0.2 filters (Sarstedt). Cell media with test compounds was discarded and 100 μL of MTT solution was added to cells. The plates were incubated for 2 hours at +37° C. Thereafter, the MTT solution was removed and 100 μL of isopropanol was added to dissolve sediment. Absorption at 570 and 650 nm was measured using Hidex Sense microplate reader.

Compound	activity in both the BSO Assay and the Rotenone ATP Assay, in words [1]	Complex I by-pass activity / restoring ATP production, in words [1]	Rotenone Oxygraph Assay % Increase [2]	activity in BSO assay (protection from BSO induced cell death), in words [3]	activity in LO-15 assay, in words [4]	EC50 ([1]; ATP bioluminescence, read-out: EC50 Rotenone ATP Assay) [nM]	EC50 ([1]; Table 7, read-out: Rotenone ATP Assay EC50) [nM]	EC50 ([3]; Table 7, FA patient fibroblasts, read-out: BSO Assay) [nM]	activation of Nrf-2 pathway, in words [5]	Nrf-2 Assay [5]	activity in RSL3 assay (protection from RSL3 induced ferroptosis), in words [6]	EC50 ([6]; Table 3, 2 μM RSL3, 24 hours, MTT, mean of at least three measurements, unit printed in Table 7, read-out: RSL3 Assay EC50, Mean) [nM]	EC50 ([6]; Table 7, 2 μM RSL3, 24 hours, MTT, read-out: RSL3 Assay EC50) [nM]	EC50 ([1]; Homo sapiens, 1 h, ATP bioluminescence, read-out: EC50 Rotenone ATP Assay) [nM]	Rotenone ATP Assay EC50, nM ([1]; Table 7)	activity in Rotenone Oxygraph Assay, in words [2]	Percent increase in ATP (Rotenone Oxygraph Assay), Mean [2]	EC50 ([3]; Homo sapiens, Fibroblast, FA patient fibroblasts pretreated with compound, read-out: EC50 (nM) BSO Assay) [nM]	RSL3 Assay EC50, Mean ([6]; Table 3, 2 μM RSL3, 24 hours, MTT, mean of at least three measurements, unit printed in Table 7)	RSL3 Assay EC50, nM ([6]; Table 7, 2 μM RSL3, 24 hours, MTT)
Cc1c(C)c2c(c(C)c1O)CC[C@@](C)(CCC=C(F)F)O2 [Compound 67, (R)-2-(4,4-difluorobut-3-en-1-yl)-2,5,7,8-tetramethylchroman-6-ol]	possess both activities																			
COC1=C(OC)C(=O)C(CCCCCCCCCCO)=C(C)C1=O [Idebenone]	do not possess both activities; also recorded: none of them are active in both assays	ability to restore ATP production when Complex I is inhibited; also recorded: active	70.2 +/− 15%	very weakly active/borderline inactive																
(R)-2-(3-hydroxy-3-methyl-4-(3-(trimethylsilyl)propoxy)butyl)-3,5,6-trimethylcyclohexa-2,5-diene-1,4-dione [Compound M]		active	56.6 +/− 11.3%	able to prevent ferroptotic cell death; also recorded: active	best result; also recorded: effective inhibitors	1000 to 3000	1340	61.2	do not activate	Inactive	active; also recorded: able to prevent ferroptotic cell death	41.2	41.2							
CC1=C(C)C(=O)C(CC[C@](C)(O)CCCCCCCCC(F)(F)F)=C(C)C1=O [Compound N, (R)-2,3,5-trimethyl-6-(12,12,12-trifluoro-3-hydroxy-3-methyldodecyl)cyclo-hexa-2,5-diene-1,4-dione]	possess both activities	active	44.8 +/− 10.3%	able to prevent ferroptotic cell death; also recorded: active	active; also recorded: effective inhibitors				do not activate	Inactive	active; also recorded: able to prevent ferroptotic cell death									
CC(C)=CCC/C(C)=C/CC/C(C)=C/CC[C@@](C)(O)CCC1=C(C)C(=O)C(C)=C(C)C1=O (stereo in doubt) [Vatiquinone, reference compound]	do not possess both activities; also recorded: none of them are active in both assays	not	Inactive	ability to circumvent BSO induced cell death; also recorded: active							active			> 3000	Inactive	inactive	Inactive	< 100		
CC1(C)CC[C@]2(NC(=O)C(C)(F)F)CC[C@]3(C)[C@H](C(=O)C=C4[C@@]5(C)C=C(C#N)C(=O)C(C)(C)[C@@H]5CC[C@]43C)[C@@H]2C1 [Omaveloxolone, reference compound]	do not possess both activities; also recorded: none of them are active in both assays	not	Inactive	ability to circumvent BSO induced cell death; also recorded: displayed anti-ferroptotic activity; also recorded: active					positive and does	Active					Inactive	inactive	Inactive		Inactive	Inactive
